# In patent US10092620B2, “Uses of cyclic peptides for treating and preventing atherosclerosis” (THE SCRIPPS RESEARCH INSTITUTE, priority 2013, dated 2018):
# “Also recorded” adds a separate entry of the source. Non-standard residues stand in square brackets, D forms with d. Residues, ends and D or L forms follow the SMILES beside them.
# Experiments:
# [1] = plasma liver enzyme activities (ALT, AST); type: in vivo, mouse; settings: oral ~25 mg/kg/day, 10 weeks, LDLr-null mice
# Description: Plasma liver enzyme activities: At the time of harvest (10 week), blood (˜0.5 mL) was collected after an overnight fast (14-16 h) by cardiac puncture into EDTA anti-coagulant coated tubes, and centrifuged at 4° C. for 10 min×5000 rpm. Plasma samples were stored at −80° C. until analysis. Plasma alanine aminotransferase (ALT) and aspartate aminotransferase (AST) concentrations were measured using Infinity ALT (GPT) and AST (GOT) liquid stable reagents, respectively, which is a colorimetric kinetic assay (Thermo Scientific). Assays were performed in accordance to the manufacturer's recommendations, adjusting the reagent volumes (20 μL plasma+200 μL reagent, 0.69-cm light pathlength of the solution in the well) for analysis of samples in 96-well flat bottom microplate format.
# LDLr-null mice = assay: plasma lipoprotein and lipoprotein cholesterol profiles (FPLC of pooled plasma); type: in vivo, mouse; settings: 2 weeks oral ~25 mg/kg/day
# Description: Effect of cyclic peptides on plasma lipoprotein and lipoprotein cholesterol profiles: Pooled plasma (240 μL total, 30 μL from each, n=8 mice per group) from the two-week blood draw was used for fast protein liquid chromatography (FPLC) analysis. Lipoproteins were separated by using 3 Superdex 200 10/30 columns connected in series (GE Healthcare). The plasma was centrifuged at 11,000 rpm for 10 min at room temperature to remove particulates (floating material was gently mixed into liquid before removing the supernatant for FPLC injection). 200 μL of the pooled plasma was injected on the system eluted with 10 mM tris-HCl buffer, pH 7.4, containing 1 mM EDTA and 150 mM NaCl; a flow rate of 0.5 ml/min and fraction size of 0.5 mL were used. Total cholesterol in the FPLC fractions was measured using the Amplex® red cholesterol assay kit (No. A12216, Life Technologies) according to the manufacturer's instructions. 20 μL of selected HDL fractions (as indicated in FIG. 6) were mixed with 4 μL of 6× native loading buffer (375 mM tris, pH 6.8, 0.06% bromophenol, 60% glycerol), out of which 20 μL was applied to non-denaturing gel electrophoresis and then immunoblotted for mouse apoA-I as described above.
# [2] = system: mouse macrophage J774 cells; assay: cholesterol efflux from mouse macrophage cells incubated with peptide-treated human plasma; type: cell-based
# Description: Selected cyclic D,L-α-peptides were further evaluated for their ability to promote cellular cholesterol efflux from mouse macrophage J774 cells. A main factor for HDL anti-atherogenicity is its role in reverse cholesterol transport, of which cellular cholesterol efflux is a critical component. To measure efflux mediated by the cyclic D,L-α-peptides, cholesterol-laden cells were incubated with peptide-treated plasma for 4 h, after which the level of cholesterol effluxed to the media was measured as described in Sankaranarayanan et al., J. Lipid Res. 52, 2332-2340, 2011.
# Preparation of labeling medium: These procedures were modified from that reported in Sankaranarayanan et al., J. Lipid Res. 52, 2332-2340, 2011. The labeling medium was prepared by complexing the unlabeled cholesterol and BODIPY-cholesterol (20% of the total cholesterol) with methyl-β-cyclodextrin (CD) at a molar ratio of 1:40 (total cholesterol/CD). Unlabeled cholesterol and BODIPY-cholesterol were dissolved in chloroform and dried in a round bottom flask by rotor-evaporation in the dark to form a thin film. The cholesterol mixture was solubilized by adding 20 mM CD in MEM-HEPES buffer. The suspension was sonicated in a water bath (37° C.) for at 1 h, stirred at 37° C. for 3 h, filtered using a 0.45-μm syringe filter, and diluted with an equal volume of MEM-HEPES buffer containing 4 μg/mL Sandoz ACAT (acyl-CoA:cholesterol acyltransferase) inhibitor (Sigma). The final concentrations of BODIPY-cholesterol, unlabeled cholesterol, CD, and ACAT inhibitor in the labeling medium were 0.025 mM, 0.1 mM, 10 mM, and […], respectively.
# Preparation of efflux medium: Just before the initiation of the efflux assays, the human plasma frozen at −80° C. was thawed, and 80 μL of plasma was incubated with 20 μL of cyclic peptide stocks (peptide stocks were 1-3 mg/mL in 10% sucrose) or the vehicle (10% sucrose) at 37° C. for 30 min. The treated plasma samples (100 μL) were then incubated with 25% PEG 8000 solution in 200 mM glycine buffer, pH 8.5 (40 μL) to precipitate apoB-containing lipoproteins (Asztalos et al., J. Lipid Res. 46, 2246-2253, 2005). After a 15-min incubation, the precipitate was removed by high-speed centrifugation (13,000 rpm, 10 min, 4° C.), and the supernatant (60 μL) was immediately diluted with MEM-HEPES buffer (1.5 mL) to give ˜2% whole plasma. This solution, containing the peptide remodeled-HDL lipoprotein fraction as cholesterol acceptors, was used as the efflux medium.
# Cholesterol efflux from mouse macrophage cells: Mouse macrophage J774A.1 cells (TIB-67; American Type Culture Collection, Manassas, Va.) were seeded in 12-well culture plate at 3×10^5 cells/mL and cultured to 80-90% confluency in DMEM with 10% FBS at 5% CO2. Cells were rinsed twice with MEM-HEPES, incubated for 1 h with 0.25 ml of labeling medium containing CD/BODIPY-cholesterol/unlabeled cholesterol and 2 μg/mL Sandoz ACAT inhibitor, followed by washing twice with MEM-HEPES. The cholesterol-laden cells were equilibrated for 18 h in DMEM containing 5% LPDS, […] Sandoz ACAT inhibitor, and 0.3 mM Cpt-cAMP. After equilibration, the cells were washed twice with MEM-HEPES and incubated with 0.25 mL of efflux media for 4 h. At the end of the incubation time, the efflux media was removed and centrifuged (1200 rpm, 10 min) to remove floating cells, and the fluorescence intensity of 100 μL cell-free media was recorded using a Tecan GENios plate reader (excitation 485 nm, emission 535 nm). The obtained signals were background subtracted using the signal from unlabeled cells. The cell monolayers were rinsed twice with ice-cold MEM-HEPES and solubilized with 0.25 mL 1% cholic acid by shaking on a plate shaker for at least 4 h at room temperature; then the fluorescence intensity of 100 μL cell lysate was recorded and background subtracted using the signal from unlabeled cell lysate. […]
# [3] = listed as c[wLwReQeR], 25 mg/kg/day
smiles,measurement,setting,value
"CC(C)C[C@@H]1NC(=O)[C@@H](Cc2c[nH]c3ccccc23)NC(=O)[C@H](CCCNC(=N)N)NC(=O)[C@@H](CCC(=O)O)NC(=O)[C@H](CCC(N)=O)NC(=O)[C@@H](CCC(=O)O)NC(=O)[C@H](CCCNC(=N)N)NC(=O)[C@@H](Cc2c[nH]c3ccccc23)NC1=O [SEQ ID NO:1, c[wLwReQeR]] (cyclo([dW]L[dW]R[dE]Q[dE]R))","liver enzyme ALT, difference between groups",[1],No differences
same,"liver enzyme AST, difference between groups",[1],No differences
same,HDL particle size (FPLC lipoprotein profile),"LDLr-null mice; listed as 1, 25 mg/kg/day",remodeled in favor of the smaller HDL particle sizes
same,VLDL and LDL levels (FPLC lipoprotein profile),"LDLr-null mice; listed as 1, 25 mg/kg/day",reduced levels of VLDL and LDL
same,HDL particle size (FPLC lipoprotein profile),LDLr-null mice; [3],modest shift to smaller (later eluting) particles
same,VLDL and LDL levels (FPLC lipoprotein profile),LDLr-null mice; [3],decreases in the VLDL and LDL levels
same,HDL levels (FPLC lipoprotein profile),LDLr-null mice; vs vehicle,comparable for both groups
same,toxicity based on the cellular morphology and density,[2]; J774 cells in the efflux assay,did not appear to be toxic
same,promotion of cellular cholesterol efflux (in words),"[2]; J774 cells, 2% apoB-depleted peptide-treated human plasma, 4 h, FIG. 2b",clear concentration dependency; also recorded: only marginally less effective than the α-helical apoA-I mimetic 4F
